Values of other authors as cited in patent US20180271820A1, “METHODS OF TREATING HEART FAILURE” (priority 2015, published 2018).
Structures can show the parent of a compound that is named as a salt.

Experiments:
[1] = cited from earlier work
patients = conditions: 120 mg, 240 mg, daily, BID, and TID; cited from earlier work
Ehrlich ascites tumor = conditions: mice; cited from earlier work
[2] = test system: patients with preserved EF; conditions: GISSI-HF, rosuvastatin or placebo; cited from earlier work
HFPEF patients = conditions: RELAX trial; cited from earlier work
[3] = test system: patients with symptomatic heart failure and a preserved ejection fraction; conditions: 3,445 patients, TOPCAT trial; cited from earlier work

COC(=O)/C=C/C(=O)OC [DMF, dimethyl fumarate]
aqueous solubility [1]: poor | side effect profile across dosages (patients): similar

O=C(O)/C=C/C(=O)O [Fumaric acid]
growth of the Ehrlich ascites tumor (Ehrlich ascites tumor): inhibits the growth

CC(C)c1nc(N(C)S(C)(=O)=O)nc(-c2ccc(F)cc2)c1/C=C/[C@@H](O)C[C@@H](O)CC(=O)O [rosuvastatin]
benefit in subgroup of patients with preserved EF [2]: no benefit

CCCc1nn(C)c2c(=O)[nH]c(-c3cc(S(=O)(=O)N4CCN(C)CC4)ccc3OCC)nc12 [sildenafil]
primary outcome of functional capacity (HFPEF patients): did not impact

CC(=O)S[C@@H]1CC2=CC(=O)CC[C@]2(C)[C@H]2CC[C@@]3(C)[C@@H](CC[C@@]34CCC(=O)O4)[C@H]12 [spironolactone]
incidence of primary composite outcome of death from cardiovascular causes, cardiac arrest, or hospitalization for heart failure [3]: did not significantly reduce
